Test results: patent US9434763B2, “Derivatives of pyridinone as inhibitors for tissue transglutaminase” (ZEDIRA GMBH, priority 2012, dated 2016)
pIC50: −log10 of the molar value.

What was measured:
[1] = test system: Huh 7 (human hepatome-cell line); assay: Cytotoxicity: proliferation, Cell Proliferation ELISA, BrdU, Huh 7; type: cell-based; settings: Huh7 cells; inhibitors up to highest measured concentration of 1 mM (so in the source); cycloheximide 2.5 μg/ml, camptothecin 0.2 μg/ml
Description: (§1) Huh 7 (human hepatome-cell line) and CaCo2 (human colon carcinoma-cell line) were seeded to 96 well plates in Dulbecco's Modified Eagle's Medium (DMEM)/10% fetal calf serum (FCS) and cultivated. The method is known to the skilled person.
(§2) […] The determination of the proliferation was carried out using the Cell Proliferation ELISA, BrdU (Roche 11 647 229 001): 24 hours after incubation of the cells with the inhibitor BrdU was added. The colorimetric development of the test was made after further 48 hours according to manufacturer's information. The extinction was measured at 450 nm. For determination of the metabolic activity using the EZ4U-Assay (Biomedica B1-5000) the tetrazolium substrate was added to the cells 48 hours after addition of the inhibitor. The capacity for reaction of the cells was measured every hour over a period of 4 hours at 450 nm against a reference filter of 630 nm. DMEM without inhibitor was added as reference in both experiments, as positive control cycloheximide (2.5 μg/ml) and camptothecin (0.2 μg/ml).

[2] = test system: Huh 7 (human hepatome-cell line); assay: Cytotoxicity: metabolic activity, EZ4U-Assay, Huh 7; type: cell-based; settings: Huh7 cells; 48 hours after addition; inhibitors up to 1 mM (so in the source); cycloheximide 2.5 μg/ml, camptothecin 0.2 μg/ml
Description: as §1, §2

[3] = test system: CaCo2 (human colon carcinoma-cell line); assay: Cytotoxicity: proliferation, Cell Proliferation ELISA, BrdU, CaCo2; type: cell-based; settings: CaCo2 cells; inhibitors up to highest measured concentration of 1 mM (so in the source); cycloheximide 2.5 μg/ml, camptothecin 0.2 μg/ml
Description: as §1, §2

[4] = test system: CaCo2 (human colon carcinoma-cell line); assay: Cytotoxicity: metabolic activity, EZ4U-Assay, CaCo2; type: cell-based; settings: CaCo2 cells; 48 hours after addition; inhibitors up to 1 mM (so in the source); cycloheximide 2.5 μg/ml, camptothecin 0.2 μg/ml
Description: as §1
After one hour the inhibitors A63 (ZED1227), A29 (ZED1098) and A61 (ZED1219) were added in the concentrations 0.1 μM to 1 μM. The determination of the proliferation was carried out using the Cell Proliferation ELISA, BrdU (Roche 11 647 229 001): 24 hours after incubation of the cells with the inhibitor BrdU was added. The colorimetric development of the test was made after further 48 hours according to manufacturer's information. The extinction was measured at 450 nm. For determination of the metabolic activity using the EZ4U-Assay (Biomedica B1-5000) the tetrazolium substrate was added to the cells 48 hours after addition of the inhibitor. The capacity for reaction of the cells was measured every hour over a period of 4 hours at 450 nm against a reference filter of 630 nm. DMEM without inhibitor was added as reference in both experiments, as positive control cycloheximide (2.5 μg/ml) and camptothecin (0.2 μg/ml).

[5] = target: T1, His tagged recombinant human tissue transglutaminase (His6-rh-TG2) (Homo sapiens, UniProt P21980); assay: Inactivation of human tissue transglutaminase, fluorescence assay with Abz-APE(CAD-DNP)QEA-OH; type: biochemical; settings: substrate Abz-APE(CAD-DNP)QEA-OH, 37° C., pH=7.5
T1 construct: purchased Zedira T002
T1 sequence (P21980 1-687): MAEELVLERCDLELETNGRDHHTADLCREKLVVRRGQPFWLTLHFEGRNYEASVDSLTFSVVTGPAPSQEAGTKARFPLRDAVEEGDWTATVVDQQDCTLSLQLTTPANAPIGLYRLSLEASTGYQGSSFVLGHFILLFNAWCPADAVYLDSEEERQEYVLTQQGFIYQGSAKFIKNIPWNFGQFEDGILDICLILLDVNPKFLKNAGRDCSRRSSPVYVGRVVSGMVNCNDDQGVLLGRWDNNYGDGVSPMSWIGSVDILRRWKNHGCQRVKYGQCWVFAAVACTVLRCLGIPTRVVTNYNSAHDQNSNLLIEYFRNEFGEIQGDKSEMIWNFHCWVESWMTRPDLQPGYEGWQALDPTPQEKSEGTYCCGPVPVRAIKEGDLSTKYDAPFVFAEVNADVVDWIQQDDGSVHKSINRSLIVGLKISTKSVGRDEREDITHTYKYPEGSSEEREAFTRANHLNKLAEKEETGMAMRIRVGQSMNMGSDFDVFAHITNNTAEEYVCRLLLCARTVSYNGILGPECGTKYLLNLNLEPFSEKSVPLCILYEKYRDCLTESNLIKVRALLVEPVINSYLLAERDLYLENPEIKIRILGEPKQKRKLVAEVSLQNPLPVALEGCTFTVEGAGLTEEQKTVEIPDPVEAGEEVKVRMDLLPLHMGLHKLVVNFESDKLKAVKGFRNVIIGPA
Method in brief: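 His6-rh-TG2 (10 μg per assay) was preincubated 5 min at 37 °C with inhibitor in Tris/CaCl2/PEG8000/DTT/glycine methyl ester assay solution (50 μM Abz-APE(CAD-DNP)QEA-OH), pH 7.5, DMSO <0.2%. Fluorescence (ex 313/em 418 nm) read over 15–30 min and activity taken from the slope. IC50 from activity vs log inhibitor concentration.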

| SMILES | pIC50 [5] | also measured |
| --- | --- | --- |
| CC[C@@]1(O)C(=O)OCc2c1cc1n(c2=O)Cc2cc3ccccc3nc2-1 [camptothecin, reference compound] | – | effect on proliferation (BrdU) [1]: significant reduction; effect on metabolic activity (EZ4U) [2]: significant reduction; effect on proliferation (BrdU) [3]: significant reduction; effect on metabolic activity (EZ4U) [4]: significant reduction |
| C[C@@H]1C[C@@H]([C@H](O)CC2CC(=O)NC(=O)C2)C(=O)[C@@H](C)C1 [cycloheximide, reference compound] | – | effect on proliferation (BrdU) [1]: significant reduction; effect on metabolic activity (EZ4U) [2]: significant reduction; effect on proliferation (BrdU) [3]: significant reduction; effect on metabolic activity (EZ4U) [4]: significant reduction |
| CCOC(=O)/C=C/CC[C@H](NC(=O)CCC(=O)O)C(=O)Nc1cccn(CC(=O)N[C@@H](CC(C)C)C(=O)OC)c1=O [A32, 4-((S,E)-7-Ethoxy-1-(1-(2-((S)-1-methoxy-4-methyl-1-oxopentan-2-ylamino)-2-oxoethyl)-2-oxo-1,2-dihydropyridin-3-ylamino)-1,7-dioxohept-5-en-2-ylamino)-4-oxobutanoic acid] | 6.71 | – |
| CCOC(=O)/C=C/CC[C@H](NC(=O)CCC(=O)O)C(=O)Nc1cccn(CC(=O)NCc2ccccc2C(F)(F)F)c1=O [A44, (S,E)-4-(7-Ethoxy-1,7-dioxo-1-(2-oxo-1-(2-oxo-2-(2-(trifluoromethyl)benzylamino)ethyl)-1,2-dihydropyridin-3-ylamino)hept-5-en-2-ylamino)-4-oxobutanoic acid] | 6.62 | – |
| CCOC(=O)/C=C/CC[C@H](NC(C)=O)C(=O)Nc1cccn(CC(=O)NCC2CCN(CC)CC2)c1=O [A48, (S,E)-Ethyl 6-acetamido-7-(1-(2-((1-ethylpiperidin-4-yl)methylamino)-2-oxoethyl)-2-oxo-1,2-dihydropyridin-3-ylamino)-7-oxohept-2-enoate] | 5.77 | – |
| CC(=O)N[C@@H](CC/C=C/S(C)(=O)=O)C(=O)Nc1cccn(CC(=O)NCCC(C)C)c1=O [A77, (S,E)-2-acetamido-N-(1-(2-(isopentylamino)-2-oxoethyl)-2-oxo-1,2-dihydropyridin-3-yl)-6-(methylsulfonyl)hex-5-enamide] | 6.33 | – |
| CCOC(=O)/C=C/CC[C@H](NC(=O)CCC(=O)O)C(=O)Nc1cccn(CC(=O)N[C@H](CC(C)C)C(=O)OC)c1=O [A34, 4-((S,E)-7-Ethoxy-1-(1-(2-((R)-1-methoxy-4-methyl-1-oxopentan-2-ylamino)-2-oxoethyl)-2-oxo-1,2-dihydropyridin-3-ylamino)-1,7-dioxohept-5-en-2-ylamino)-4-oxobutanoic acid] | 6.19 | – |

The next lines start with results.

| pIC50 [5] | SMILES | also measured |
| --- | --- | --- |
| 6.98 | CCOC(=O)/C=C/CC[C@H](NC(=O)c1cccnc1)C(=O)Nc1cccn(CC(=O)NCCC(C)C)c1=O [A16, (S,E)-Ethyl 7-(1-(2-(isopentylamino)-2-oxoethyl)-2-oxo-1,2-dihydropyridin-3-ylamino)-6-(nicotinamido)-7-oxohept-2-enoate] | – |
| 6.86 | CCOC(=O)/C=C/CC[C@H](NC(=O)CCNC(N)=O)C(=O)Nc1cccn(CC(=O)NCCC(C)C)c1=O [A56, (S,E)-Ethyl 7-(1-(2-(isopentylamino)-2-oxoethyl)-2-oxo-1,2-dihydropyridin-3-ylamino)-7-oxo-6-(3-ureidopropanamido)hept-2-enoate] | – |
| 7.08 | CCOC(=O)/C=C/CC[C@H](NS(=O)(=O)c1ccoc1)C(=O)Nc1cccn(CC(=O)NCCC(C)C)c1=O [A13, (S,E)-Ethyl 6-(furan-3-sulfonamido)-7-(1-(2-(isopentylamino)-2-oxoethyl)-2-oxo-1,2-dihydropyridin-3-ylamino)-7-oxohept-2-enoate] | – |
| 6.92 | CCOC(=O)/C=C/CC[C@H](NC(C)=O)C(=O)Nc1cccn(CC(=O)NCC(C)CC)c1=O (stereo partly drawn) [A50, (6S,E)-Ethyl 6-acetamido-7-(1-(2-(2-methylbutylamino)-2-oxoethyl)-2-oxo-1,2-dihydropyridin-3-ylamino)-7-oxohept-2-enoate] | – |
| 5.48 | CCOC(=O)/C=C/CC[C@H](NC(C)=O)C(=O)Nc1cccn(CC(=O)NCCN2CCCC2)c1=O [A46, (S,E)-Ethyl 6-acetamido-7-oxo-7-(2-oxo-1-(2-oxo-2-(2-(pyrrolidin-1-yl)ethylamino)ethyl)-1,2-dihydropyridin-3-ylamino)hept-2-enoate] | – |
| 7.02 | CCOC(=O)/C=C/CC[C@H](NC(=O)OCc1ccccc1)C(=O)Nc1cccn(CC(=O)NCCC(C)C)c1=O [A3, (S,E)-Ethyl 6-(benzyloxycarbonylamino)-7-(1-(2-(isopentylamino)-2-oxoethyl)-2-oxo-1,2-dihydropyridin-3-ylamino)-7-oxohept-2-enoate] | – |
| 6.20 | CC(=O)N[C@@H](CC/C=C/C(=O)OCc1ccccc1)C(=O)Nc1cccn(CC(=O)NCCC(C)C)c1=O [A78, (S,E)-Benzyl 6-acetamido-7-(1-(2-(isopentylamino)-2-oxoethyl)-2-oxo-1,2-dihydropyridin-3-ylamino)-7-oxohept-2-enoate] | – |
| 6.98 | CCOC(=O)/C=C/CC[C@H](NC(=O)c1ccoc1)C(=O)Nc1cccn(CC(=O)NCCC(C)C)c1=O [A11, (S,E)-Ethyl 6-(furan-3-carboxamido)-7-(1-(2-(isopentylamino)-2-oxoethyl)-2-oxo-1,2-dihydropyridin-3-ylamino)-7-oxohept-2-enoate] | – |
| 6.27 | CC(=O)N[C@@H](CC/C=C/C(=O)OC(C)C)C(=O)Nc1cccn(CC(=O)NCCC(C)C)c1=O [A6, (S,E)-isopropyl 6-acetamido-7-(1-(2-(isopentylamino)-2-oxoethyl)-2-oxo-1,2-dihydropyridin-3-ylamino)-7-oxohept-2-enoate] | – |
